The nature of data set [1]: percutaneous absorption of formoterol (finding of the inventors). As to conditions: formoterol and/or salts thereof not in a dissolved state.
Data set [2] can be described thus: hydrolytic stability of formoterol (general statement). It counts as physicochemical. As to conditions: preparations having high water contents.

“Also recorded” adds a separate entry of the source.

`COc1ccc(CC(C)NCC(O)c2ccc(O)c(NC=O)c2)cc1` (centres unmarked) [formoterol]: in data set [1], the percutaneous absorption result is recorded as “extremely poor percutaneous absorption”. Also, the hydrolysis entry in data set [2] was “hydrolyzed; also recorded: easily hydrolyzable”.

Values taken from patent publication US6211425A, “Patch” (Saitama Daiichi Seiyaku Kabushiki Kaisha, priority 1996, dated 2001).
